Each structure is given as a SMILES string.

For one experiment, the target named is human recombinant GPR65 (Homo sapiens, UniProt Q8IYL9). The experiment in a line: Human GPR65 cAMP HTRF antagonist assay. The format is cell-based.
human recombinant GPR65, sequence (Q8IYL9 whole entry): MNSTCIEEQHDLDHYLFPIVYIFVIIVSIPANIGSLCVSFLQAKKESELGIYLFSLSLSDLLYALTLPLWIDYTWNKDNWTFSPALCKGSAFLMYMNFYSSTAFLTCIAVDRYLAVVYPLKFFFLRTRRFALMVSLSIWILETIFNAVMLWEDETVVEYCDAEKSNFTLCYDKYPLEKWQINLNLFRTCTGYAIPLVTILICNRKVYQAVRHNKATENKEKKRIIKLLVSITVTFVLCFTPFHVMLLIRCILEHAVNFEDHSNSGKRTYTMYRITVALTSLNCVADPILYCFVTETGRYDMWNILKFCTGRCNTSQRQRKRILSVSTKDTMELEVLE
Details: not given
The method in brief: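 1321N1 astrocytoma cells stably expressing hrGPR65, with IBMX and EDTA, were preincubated with compound 30 min at room temperature, then acid-activated at assay pH 7.2 (control pH 7.9) for 30 min. cAMP read by HTRF (665/620 nm ratio); IC50 from 4-parameter fit normalised to high/low controls.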
A general note: TR-FRET usually uses a lanthanide donor and a delayed reading to cut background.
The IC50 is the midpoint of a concentration-inhibition curve. Regarding `O=C(Nc1cc(Cl)c(C(F)(F)F)cc1F)N1[C@@H]2CC[C@H]1[C@H](F)c1c2ccnc1F` [Compound 193, (5R,8S,9R)-N-(5-Chloro-2-fluoro-4-(trifluoromethyl)phenyl)-1,9-difluoro-6,7,8,9-tetrahydro-5H-5,8-epiminocyclohepta[c]pyridine-10-carboxamide], the 50% inhibitory concentration (IC50) is below 500 nM. Turning to `O=C(Nc1cc(Cl)c(C(F)(F)F)cc1F)N1[C@@H]2CC[C@H]1c1ccnc(F)c1C2` [Compound 194, (5S,8R)-N-(5-Chloro-2-fluoro-4-(trifluoromethyl)phenyl)-1-fluoro-6,7,8,9-tetrahydro-5H-5,8-epiminocyclohepta[c]pyridine-10-carboxamide], the IC50 is below 500 nM.

For `O=C(Nc1cc(Cl)c(-c2ccccn2)cc1F)N1[C@H]2CC[C@@H]1c1n[nH]c(=O)cc1C2` [Compound 195, (6S,9R)-N-(5-Chloro-2-fluoro-4-(pyridin-2-yl)phenyl)-3-oxo-3,5,6,7,8,9-hexahydro-2H-6,9-epiminocyclohepta[c]pyridazine-10-carboxamide], the half-maximal inhibitory concentration (IC50) was below 500 nM. Still for that read-out and setting: the same measure for `O=C(Nc1cc(Cl)c(-c2ccc3cnoc3c2)cc1F)N1[C@H]2CC[C@@H]1c1n[nH]c(=O)cc1C2` [Compound 196, (6S,9R)-N-(4-(Benzo[d]isoxazol-6-yl)-5-chloro-2-fluorophenyl)-3-oxo-3,5,6,7,8,9-hexahydro-2H-6,9-epiminocyclohepta[c]pyridazine-10-carboxamide]: 500 to 5000 nM. On to `O=C(Nc1cc(Cl)c(-c2ccc3cncn3c2)cc1F)N1[C@H]2CC[C@@H]1c1n[nH]c(=O)cc1C2` [Compound 197, (6S,9R)-N-(5-Chloro-2-fluoro-4-(imidazo[1,5-a]pyridin-6-yl)phenyl)-3-oxo-3,5,6,7,8,9-hexahydro-2H-6,9-epiminocyclohepta[c]pyridazine-10-carboxamide], for which the IC50 was below 500 nM.

Take `O=C(Nc1cc(Cl)c(-c2ccc3conc3c2)cc1F)N1[C@H]2CC[C@@H]1c1n[nH]c(=O)cc1C2` [Compound 198, (6S,9R)-N-(4-(Benzo[c]isoxazol-6-yl)-5-chloro-2-fluorophenyl)-3-oxo-3,5,6,7,8,9-hexahydro-2H-6,9-epiminocyclohepta[c]pyridazine-10-carboxamide]: the 50% inhibitory concentration (IC50) was below 500 nM. Same read-out and setting: to `COc1cc(-c2cc(F)c(NC(=O)N3[C@H]4CC[C@@H]3c3n[nH]c(=O)cc3C4)cc2Cl)ccn1` [Compound 199, (6S,9R)-N-(5-Chloro-2-fluoro-4-(2-methoxypyridin-4-yl)phenyl)-3-oxo-3,5,6,7,8,9-hexahydro-2H-6,9-epiminocyclohepta[c]pyridazine-10-carboxamide] belongs below 500 nM; to `O=C(Nc1cc(Cl)c(-c2cncc(F)c2)cc1F)N1[C@H]2CC[C@@H]1c1ccnc(F)c1C2` [Compound 200, (5R,8S)-N-(5-Chloro-2-fluoro-4-(5-fluoropyridin-3-yl)phenyl)-1-fluoro-6,7,8,9-tetrahydro-5H-5,8-epiminocyclohepta[c]pyridine-10-carboxamide], below 500 nM. The same measure, in the same setting: to `O=C(Nc1cc(Cl)c(-c2cncc(F)c2)cc1F)N1[C@H]2CC[C@@H]1c1c[nH]c(=O)cc1C2` [Compound 201, (6S,9R)-N-(5-Chloro-2-fluoro-4-(5-fluoropyridin-3-yl)phenyl)-3-oxo-3,5,6,7,8,9-hexahydro-2H-6,9-epiminocyclohepta[c]pyridine-10-carboxamide] belongs below 500 nM; to `COc1ccc(-c2cc(F)c(NC(=O)N3[C@H]4CC[C@@H]3c3n[nH]c(=O)cc3C4)cc2Cl)c(F)n1` [Compound 202, (6S,9R)-N-(5-Chloro-2-fluoro-4-(2-fluoro-6-methoxypyridin-3-yl)phenyl)-3-oxo-3,5,6,7,8,9-hexahydro-2H-6,9-epiminocyclohepta[c]pyridazine-10-carboxamide], below 500 nM; to `Cc1nc2ccc(-c3cc(F)c(NC(=O)N4[C@H]5CC[C@@H]4c4ccnc(F)c4C5)cc3Cl)cc2o1` [Compound 205, (5R,8S)-N-(5-Chloro-2-fluoro-4-(2-methylbenzo[d]oxazol-6-yl)phenyl)-1-fluoro-6,7,8,9-tetrahydro-5H-5,8-epiminocyclohepta[c]pyridine-10-carboxamide], below 500 nM. Consider `Cc1nc2ccc(-c3cc(F)c(NC(=O)N4[C@H]5CC[C@@H]4c4c[nH]c(=O)cc4C5)cc3Cl)cc2o1` [Compound 206, (6S,9R)-N-(5-Chloro-2-fluoro-4-(2-methylbenzo[d]oxazol-6-yl)phenyl)-3-oxo-3,5,6,7,8,9-hexahydro-2H-6,9-epiminocyclohepta[c]pyridine-10-carboxamide], for which the IC50 was below 500 nM. With `COc1ncc(-c2cc(F)c(NC(=O)N3[C@H]4CC[C@@H]3c3n[nH]c(=O)cc3C4)cc2Cl)cc1F` [Compound 207, (6S,9R)-N-(5-Chloro-2-fluoro-4-(5-fluoro-6-methoxypyridin-3-yl)phenyl)-3-oxo-3,5,6,7,8,9-hexahydro-2H-6,9-epiminocyclohepta[c]pyridazine-10-carboxamide], the half-maximal inhibitory concentration (IC50) was below 500 nM. On to `CCOc1ccc(-c2cc(F)c(NC(=O)N3[C@H]4CC[C@@H]3c3n[nH]c(=O)cc3C4)cc2Cl)cn1` [Compound 208, (6S,9R)-N-(5-Chloro-4-(6-ethoxypyridin-3-yl)-2-fluorophenyl)-3-oxo-3,5,6,7,8,9-hexahydro-2H-6,9-epiminocyclohepta[c]pyridazine-10-carboxamide], for which the IC50 was below 500 nM. As for `CC(C)Oc1ccc(-c2cc(F)c(NC(=O)N3[C@H]4CC[C@@H]3c3n[nH]c(=O)cc3C4)cc2Cl)cn1` [Compound 209, (6S,9R)-N-(5-Chloro-2-fluoro-4-(6-isopropoxypyridin-3-yl)phenyl)-3-oxo-3,5,6,7,8,9-hexahydro-2H-6,9-epiminocyclohepta[c]pyridazine-10-carboxamide], the IC50 was below 500 nM. On the same count and under the same terms, to `O=C(Nc1cc(Cl)c(-c2cccc3nonc23)cc1F)N1[C@H]2CC[C@@H]1c1n[nH]c(=O)cc1C2` [Compound 210, (6S,9R)-N-(4-(Benzo[c][1,2,5]oxadiazol-4-yl)-5-chloro-2-fluorophenyl)-3-oxo-3,5,6,7,8,9-hexahydro-2H-6,9-epiminocyclohepta[c]pyridazine-10-carboxamide] belongs below 500 nM; to `COc1ccc(-c2cc(F)c(NC(=O)N3[C@H]4CC[C@@H]3c3n[nH]c(=O)cc3C4)cc2Cl)nc1` [Compound 211, (6S,9R)-N-(5-Chloro-2-fluoro-4-(5-methoxypyridin-2-yl)phenyl)-3-oxo-3,5,6,7,8,9-hexahydro-2H-6,9-epiminocyclohepta[c]pyridazine-10-carboxamide], below 500 nM; to `O=C(Nc1cc(C(F)(F)F)c(-c2ccc(F)nc2)cc1F)N1[C@H]2CC[C@@H]1c1n[nH]c(=O)cc1C2` [Compound 212, (6S,9R)-N-(2-Fluoro-4-(6-fluoropyridin-3-yl)-5-(trifluoromethyl)phenyl)-3-oxo-3,5,6,7,8,9-hexahydro-2H-6,9-epiminocyclohepta[c]pyridazine-10-carboxamide], below 500 nM. The same measure, in the same setting: the same measure for `COc1ccc(-c2cc(F)c(NC(=O)N3[C@H]4CC[C@@H]3c3n[nH]c(=O)cc3C4)cc2C(F)(F)F)cn1` [Compound 213, (6S,9R)-N-(2-Fluoro-4-(6-methoxypyridin-3-yl)-5-(trifluoromethyl)phenyl)-3-oxo-3,5,6,7,8,9-hexahydro-2H-6,9-epiminocyclohepta[c]pyridazine-10-carboxamide]: below 500 nM; for `COc1ccc(-c2cc(F)c(NC(=O)N3[C@H]4CC[C@@H]3c3ccnc(F)c3C4)cc2Cl)c(F)n1` [Compound 214, (5R,8S)-N-(5-Chloro-2-fluoro-4-(2-fluoro-6-methoxypyridin-3-yl)phenyl)-1-fluoro-6,7,8,9-tetrahydro-5H-5,8-epiminocyclohepta[c]pyridine-10-carboxamide]: below 500 nM; for `O=C(Nc1cc(Cl)c(-c2ccc(OCC(F)(F)F)nc2)cc1F)N1[C@H]2CC[C@@H]1c1n[nH]c(=O)cc1C2` [Compound 215, (6S,9R)-N-(5-Chloro-2-fluoro-4-(6-(2,2,2-trifluoroethoxy)pyridin-3-yl)phenyl)-3-oxo-3,5,6,7,8,9-hexahydro-2H-6,9-epiminocyclohepta[c]pyridazine-10-carboxamide]: below 500 nM.

Turning to `O=C(Nc1cc(Cl)c(-c2ccc(OC3CCC3)nc2)cc1F)N1[C@H]2CC[C@@H]1c1n[nH]c(=O)cc1C2` [Compound 216, (6S,9R)-N-(5-Chloro-4-(6-cyclobutoxypyridin-3-yl)-2-fluorophenyl)-3-oxo-3,5,6,7,8,9-hexahydro-2H-6,9-epiminocyclohepta[c]pyridazine-10-carboxamide], the half-inhibitory concentration (IC50) was below 500 nM. Still for that read-out and setting: the same measure for `COc1ncc(-c2cc(F)c(NC(=O)N3[C@H]4CC[C@@H]3c3c[nH]c(=O)cc3C4)cc2Cl)cc1F` [Compound 217, (6S,9R)-N-(5-Chloro-2-fluoro-4-(5-fluoro-6-methoxypyridin-3-yl)phenyl)-3-oxo-3,5,6,7,8,9-hexahydro-2H-6,9-epiminocyclohepta[c]pyridine-10-carboxamide]: below 500 nM.

Still in this experiment, the particulars now being: 1321N1-hrGPR65 cells, cAMP HTRF, assay pH 7.2; read-out: hGPR65 IC50 (Activity of selected compounds according to the invention).
For `COCc1ccncc1-c1cc(F)c(NC(=O)N2[C@H]3CC[C@@H]2c2n[nH]c(=O)cc2C3)cc1Cl` [Compound 192, (6S,9R)-N-(5-Chloro-2-fluoro-4-(4-(methoxymethyl)pyridin-3-yl)phenyl)-3-oxo-3,5,6,7,8,9-hexahydro-2H-6,9-epiminocyclohepta[c]pyridazine-10-carboxamide], the IC50 lay in the range of 500 to 5000 nM.

`CS(=O)(=O)NCc1cccc(-c2cc(F)c(NC(=O)N3[C@H]4CC[C@@H]3c3n[nH]c(=O)cc3C4)cc2Cl)c1` [Compound 203, (6S,9R)-N-(2-Chloro-5-fluoro-3′-(methylsulfonamidomethyl)-[1,1′-biphenyl]-4-yl)-3-oxo-3,5,6,7,8,9-hexahydro-2H-6,9-epiminocyclohepta[c]pyridazine-10-carboxamide]: the 50% inhibitory concentration (IC50) was in the range of 500 to 5000 nM.

Source of the values: patent US20240368173A1, “TRICYCLIC GPR65 MODULATORS” (PATHIOS THERAPEUTICS LIMITED, priority 2021, published 2024).
